Measured values: publication PMC11352409, “Subtype-Specific Ligand Binding and Activation Gating in Homomeric and Heteromeric P2X Receptors” (Biomolecules, 2024)

Experiments:
human P2X2 receptors = molecular target: T1, human P2X2 receptors (Homo sapiens, UniProt Q9UBL9); test: Confocal microscopy binding of fluorescent ATP derivatives to HEK293 cells expressing hP2X2; conditions: for Binding to receptor: hP2X2, confocal binding signal
T1 construct: expressed in transfected cells
T1 sequence (Q9UBL9 1-404 isoform Q9UBL9-2): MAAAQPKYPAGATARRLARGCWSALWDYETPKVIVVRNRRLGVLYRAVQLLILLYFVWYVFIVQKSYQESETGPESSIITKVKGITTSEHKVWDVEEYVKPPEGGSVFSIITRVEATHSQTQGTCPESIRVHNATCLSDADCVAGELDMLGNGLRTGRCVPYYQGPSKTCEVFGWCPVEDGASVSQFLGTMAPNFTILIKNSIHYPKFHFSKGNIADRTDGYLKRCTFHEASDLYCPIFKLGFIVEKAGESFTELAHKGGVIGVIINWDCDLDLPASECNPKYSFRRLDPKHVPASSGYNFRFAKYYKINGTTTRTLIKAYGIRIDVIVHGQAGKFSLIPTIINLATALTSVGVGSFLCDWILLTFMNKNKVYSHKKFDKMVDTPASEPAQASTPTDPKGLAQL
Experimental: (§1) For the detection of ligand binding, the cells were incubated with the fluorescent ATP derivatives in chambered coverslips or 96-well plates with cover-slip bottoms. The surface was coated with 0.1 mg/mL of poly-L-lysine for 12 h and washed twice with PBS before seeding the cells at […] density. The cells were suspended 24 h after induction and allowed to settle for two hours before being utilised for the measurements. The solutions were freshly prepared before each experiment. The bulk solution was counter-stained with the red fluorescence dye Dy647. Each confocal voxel covering the cell membrane contained both the signal from the bound ligand and the signal from ligands in the bulk solution. This additional signal, e.g., the fraction of the bulk solution inside a voxel, varied from pixel to pixel and can hardly be described theoretically.
Figure 2 Confocal microscopy was used to characterise the binding of fluorescently tagged ligands to HEK 293 cells stably expressing human P2X2 receptors. (a) Structure of fATP and α,βMe-fATP. The dye DY547P1 is attached to the 2-position of the purine ring through an aminohexylthio-linker. (b) Representative confocal images for quantification of fATP and α,βMe-fATP binding, including approximately 200 stably transfected cells/mm^2. Specific binding is proven by the lack of signal in non-induced cells and in cells expressing P2X2 receptors in the presence of 100 µM ATP. […]
The concentration–binding relationships were normalised to their maximum relative fluorescence intensities at a saturating fATP or α,βMe-fATP concentration.
Measuring the binding of ligands to receptors is challenging. […] Ligand binding was measured in stably transfected HEK293 cells expressing P2X receptors, attached to the glass bottom of the experimental chamber (Figure 2b). Quantifying ligand binding by automated fluorescence methods remains demanding at low expression levels and high ligand concentrations when the background signal becomes significant. To address this issue, we used the red fluorescence dye Dy647 at a concentration of 1 µM [27, 33, 34]. […]

human P2X2/3 receptors = molecular target: T2, human P2X2/3 receptors (Homo sapiens, UniProt P56373+Q9UBL9); test: Confocal binding versus activation of fATP at hP2X2/3 in HEK293 cells; conditions: hP2X2/3, activation rescaled to value at maximal concentration
T2 construct: expressed in transfected cells
T2 sequence (Q9UBL9 1-404 isoform Q9UBL9-2): T1 sequence (Q9UBL9 1-404 isoform Q9UBL9-2)
T2 sequence (P56373 1-397): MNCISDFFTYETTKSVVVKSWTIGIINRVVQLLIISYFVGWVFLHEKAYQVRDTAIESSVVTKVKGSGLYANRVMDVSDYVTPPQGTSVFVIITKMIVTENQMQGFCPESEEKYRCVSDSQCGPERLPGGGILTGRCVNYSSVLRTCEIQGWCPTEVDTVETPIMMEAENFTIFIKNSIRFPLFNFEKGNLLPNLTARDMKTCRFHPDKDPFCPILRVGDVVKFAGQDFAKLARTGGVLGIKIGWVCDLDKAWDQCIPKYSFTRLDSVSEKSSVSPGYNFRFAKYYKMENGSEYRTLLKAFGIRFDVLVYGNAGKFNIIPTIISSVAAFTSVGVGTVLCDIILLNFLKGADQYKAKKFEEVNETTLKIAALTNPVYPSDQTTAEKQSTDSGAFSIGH
Experimental: as §1
Because the difference in image noise contributed within both the bulk solution and the cells, the cell–bulk interfaces were selected using a Sobel operator [31] and appropriate filters/thresholds on the reference fluorophore signal. Note that only cell–bulk boundaries and not cell–cell boundaries were included in this approach. The method was described in detail previously.
The concentration–binding relationships were normalised to their maximum relative fluorescence intensities at a saturating fATP or α,βMe-fATP concentration. […]

Row | Binding to receptor (human P2X2 receptors) | Fraction of ligand remaining bound at high Mg2+ (human P2X2 receptors; hP2X2, fATP binding after application of 10 mM Mg2+) | Concentration at which normalised concentration-activation and concentration-binding curves intersect (human P2X2/3 receptors) | SMILES
1 | robust binding affinity | ~ 40% | approximately 0.5 µM | COCC[N+]1=C(C=CC=C2N(CCCCCC(=O)NCCCCCCSc3nc(N)c4ncn(C5OC(COP(=O)(O)OP(=O)(O)OP(=O)(O)O)C(O)C5O)c4n3)c3ccc(S(=O)(=O)O)cc3C2(C)C)C(C)(C)c2cc(S(=O)(=O)[O-])ccc21 (stereo not shown) [fATP, 2-[DY-547P1]-AHT-ATP]
2 | robust binding affinity | – | – | COCC[N+]1=C(C=CC=C2N(CCCCCC(=O)NCCCCCCSc3nc(N)c4ncn(C5OC(COP(=O)(O)CP(=O)(O)OP(=O)(O)O)C(O)C5O)c4n3)c3ccc(S(=O)(=O)O)cc3C2(C)C)C(C)(C)c2cc(S(=O)(=O)[O-])ccc21 (stereo not drawn) [α,βMe-fATP, 2-[DY-547P1]-AHT-α,βMe-ATP]
